# From patent US20030195376A1, “Novel intermediate and processes for its preparation and conversion into a pharmacologically-active agent” (priority 2002, published 2003)
# What was measured:
# [1] = Solubility in solvents (product characteristics); format: physicochemical; conditions: in methanol
# [2] = test system: neuronal uptake of dopamine; conditions: relative to serotonin-norepinephrine uptake; cited from earlier work
# [3] = in vivo; cited from earlier work
# [4] = ethanol, chloroform, dichloromethane, acetone, ethyl acetate, benzene, toluene and isopropyl alcohol
structure (smiles),measurement,setting,value
"COc1ccc(C(O)C2CCCCC2)cc1 (stereo not shown) [formula (V), cyclohexyl-(4-methoxy-phenyl)-methanol]",Solubility,"[1]; ethanol, chloroform, dichloromethane, acetone, ethyl acetate etc.","Soluble in methanol, ethanol, chloroform,"
"COc1ccc(C(CN(C)C)C2(O)CCCCC2)cc1 (racemic) [formula (IX), (±)-1-[2-dimethylamino-1-(4-methoxy-phenyl)-ethyl]-cyclohexanol]",inhibition of neuronal uptake of dopamine,[2],to a lesser extent
same,effectiveness compared with standard antidepressants such as imipramine,[3],as effective as
"COc1ccc(C(=O)C2CCCCC2)cc1 [formula (III), cyclohexyl-(4-methoxy-phenyl)-methanone]",Solubility,[1]; [4],"Soluble in Methanol, ethanol, chloroform, dichloromethane,"
"COc1ccc(C(CN)C2(O)CCCCC2)cc1 (stereo not shown) [formula (X), 1-[2-amino-1-(4-methoxy-phenyl)-ethyl]-cyclohexanol]",Solubility,[1]; chloroform and water,"Soluble in methanol, chloroform and water"
"COc1ccc(C2(C#N)OC23CCCCC3)cc1 (stereo not shown) [formula (I), 2-(4-methoxy-phenyl)-1-oxa-spiro[2.5]octane-2-carbonitrile]",Solubility,[1]; [4],"Soluble in methanol, ethanol, chloroform, dichloromethane,"
"COc1ccc(C(=O)C2(Br)CCCCC2)cc1 [formula (II), (1-bromo-cyclohexyl)-(4-methoxy-phenyl)-methanone]",Solubility,[1]; [4],"Soluble in methanol, ethanol, chloroform, dichloromethane,"
